Results: patent US20130035329A1, “THERAPEUTICALLY ACTIVE COMPOSITIONS AND THEIR METHODS OF USE” (priority 2009, published 2013)

Columns and labels:
IDH1 R132H = IDH1 R132H (Homo sapiens, UniProt O75874, R132H); test: High Throughput Screening (HTS) for IDH1 R132H inhibitors (resazurin/NADPH fluorescence assay); type: biochemical; settings: IDH1m
Method: A compound described herein may be an inhibitor of IDH1m. […] B refers to an inhibitor of IDH1m with an IC50 between 1 μM and 50 μM. C refers to an inhibitor of IDH1m with an IC50 greater than 50 μM. D refers to a compound wherein an IC50 is not available.
Assays were conducted in a volume of 76 μl assay buffer (150 mM NaCl, 10 mM MgCl2, 20 mM Tris pH 7.5, 0.03% bovine serum albumin) as follows in a standard 384-well plate: To 25 ul of substrate mix (8 uM NADPH, 2 mM aKG), 1 μl of test compound was added in DMSO. The plate was centrifuged briefly, and then 25 μl of enzyme mix was added (0.2 μg/ml ICDH1 R132H) followed by a brief centrifugation and shake at 100 RPM. The reaction was incubated for 50 minutes at room temperature, then 25 μl of detection mix (30 μM resazurin, […]) was added and the mixture further incubated for 5 minutes at room temperature. The conversion of resazurin to resorufine was detected by fluorescent spectroscopy at Ex544 Em590 c/o 590.

recurrent glioma = recurrent glioma patients; bevacizumab used with irinotecan; cited from earlier work
[1] = assay similar to Example 1, class symbols

Sequence of IDH1 R132H (O75874 whole entry R132H): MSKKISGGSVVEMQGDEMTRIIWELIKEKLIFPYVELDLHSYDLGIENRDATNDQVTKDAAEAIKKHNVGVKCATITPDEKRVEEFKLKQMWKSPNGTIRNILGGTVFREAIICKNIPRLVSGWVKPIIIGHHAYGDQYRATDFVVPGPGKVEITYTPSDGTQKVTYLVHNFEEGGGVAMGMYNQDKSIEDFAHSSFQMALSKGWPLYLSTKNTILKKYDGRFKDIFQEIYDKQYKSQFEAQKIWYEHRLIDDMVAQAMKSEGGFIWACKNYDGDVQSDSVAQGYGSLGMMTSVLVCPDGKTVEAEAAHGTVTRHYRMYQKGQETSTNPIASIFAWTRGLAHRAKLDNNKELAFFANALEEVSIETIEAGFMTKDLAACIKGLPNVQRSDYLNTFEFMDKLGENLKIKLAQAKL

Compound | IC50 (IDH1 R132H; [1]) [µM] | other results
COc1ccccc1N1CCN(C(=O)c2cccc(S(=O)(=O)Nc3ccc(C(C)(C)C)cc3)c2)CC1 | 1 to 50 | –
CCCCc1ccc(NS(=O)(=O)c2ccc(C)c(C(=O)N3CCN(c4ccccc4)CC3)c2)cc1 | 1 to 50 | –
CCCCc1ccc(NS(=O)(=O)c2cccc(C(=O)N3CCN(c4ccnc5[nH]ccc45)CC3)c2)cc1 | 1 to 50 | –
CCCCc1ccc(NS(=O)(=O)c2ccc(C)c(C(=O)N3CCN(c4ccccc4F)CC3)c2)cc1 | 1 to 50 | –
CCCCc1ccc(NS(=O)(=O)c2ccc(C)c(C(=O)N3CCN(c4ccccc4C)CC3)c2)cc1 | < 1 | –
CCCCc1ccc(NS(=O)(=O)c2ccc(C)c(C(=O)N3CCN(C(=O)c4ccccc4)CC3)c2)cc1 | 1 to 50 | –
CCCCc1ccc(NS(=O)(=O)c2ccc(C)c(C(=O)N3CCN(C(=O)Cc4ccccc4)CC3)c2)cc1 | 1 to 50 | –
CCCCc1ccc(NS(=O)(=O)c2ccc(C)c(C(=O)N3CCN(CC(C)c4ccccc4)CC3)c2)cc1 (stereo not drawn) | 1 to 50 | –
CCCCc1ccc(NS(=O)(=O)c2ccc(C)c(C(=O)N3CCN(Cc4ccccc4CC)CC3)c2)cc1 | 1 to 50 | –
CCCCc1ccc(NS(=O)(=O)c2ccc(C)c(C(=O)N3CCN(CCc4ccccc4)CC3)c2)cc1 | 1 to 50 | –
CCCCc1ccc(NS(=O)(=O)c2ccc(C)c(C(=O)N3CCN(C(C)c4ccccc4)CC3)c2)cc1 (stereo not drawn) | 1 to 50 | –
CCCCc1ccc(NS(=O)(=O)c2ccc(C)c(C(=O)N3CCN(C(=O)OCc4ccccc4)CC3)c2)cc1 | 1 to 50 | –
CCCCc1ccc(NS(=O)(=O)c2ccc(C)c(C(=O)N3CCN(C(=O)Oc4ccccc4)CC3)c2)cc1 | 1 to 50 | –
CCCCc1ccc(NS(=O)(=O)c2ccc(C)c(C(=O)N3CCN(C(=O)OCC(C)C)CC3)c2)cc1 | 1 to 50 | –
CCCCc1ccc(NS(=O)(=O)c2ccc(C)c(C(=O)N3CCN(C(=O)OC(C)C)CC3)c2)cc1 | 1 to 50 | –
CCCCc1ccc(NS(=O)(=O)c2ccc(C)c(C(=O)N3CCN(c4ccccc4CC)CC3)c2)cc1 | < 1 | –
CCCCc1ccc(NS(=O)(=O)c2ccc(C)c(C(=O)N3CCN(c4ccc(Cl)cc4)CC3)c2)cc1 | 1 to 50 | –
CCCCc1ccc(NS(=O)(=O)c2ccc(C)c(C(=O)N3CCN(c4ccc(OCCC)cc4)CC3)c2)cc1 | 1 to 50 | –
CCCCc1ccc(NS(=O)(=O)c2ccc(C)c(C(=O)N3CCCN(c4ccccc4F)CC3)c2)cc1 | 1 to 50 | –
CCCCc1ccc(NS(=O)(=O)c2ccc(C)c(C(=O)N3CCCN(c4ccccc4C)CC3)c2)cc1 | 1 to 50 | –

Compound | IC50 (IDH1 R132H; [1]) [µM] | other results
CCCCc1ccc(NS(=O)(=O)c2ccc(C)c(C(=O)N3CCN(c4ccccc4OCC)CC3)c2)cc1 | 1 to 50 | –
COc1ccccc1N1CCN(C(=O)c2cc(S(=O)(=O)Nc3ccc(OCc4nnco4)cc3)ccc2C)CC1 | 1 to 50 | –
CCCCc1ccc(NS(=O)(=O)c2ccc(C)c(C(=O)N3CCN(c4ccccc4OC(C)C)CC3)c2)cc1 | 1 to 50 | –
CCCCc1ccc(NS(=O)(=O)c2ccc(C)c(C(=O)N3CCN(c4ccccc4OCC4CC4)CC3)c2)cc1 | 1 to 50 | –
CCCCc1ccc(NS(=O)(=O)c2ccc(C)c(C(=O)N3CCN(c4ccccc4OCCC)CC3)c2)cc1 | 1 to 50 | –
CCCCc1ccc(NS(=O)(=O)c2ccc(C)c(C(=O)N3CCN(c4cccc(Cl)c4)CC3)c2)cc1 | 1 to 50 | –
CCCCc1ccc(NS(=O)(=O)c2ccc(C)c(C(=O)N3CCN(c4ccc(OC)cc4OC)CC3)c2)cc1 | 1 to 50 | –
CCCCc1ccc(NS(=O)(=O)c2ccc(C)c(C(=O)N3CCN(c4ccc(OC)cc4O)CC3)c2)cc1 | 1 to 50 | –
CCCCc1ccc(NS(=O)(=O)c2ccc(C)c(C(=O)N3CCN(c4ccc(F)c(OC)c4)CC3)c2)cc1 | 1 to 50 | –
CCCCc1ccc(NS(=O)(=O)c2ccc(C)c(C(=O)N3CCN(c4ccccc4Br)CC3)c2)cc1 | 1 to 50 | –
COc1ccccc1N1CCN(C(=O)c2cc(S(=O)(=O)Nc3ccc4[nH]ccc4c3)ccc2C)CC1 | 1 to 50 | –
CCCCc1ccc(NS(=O)(=O)c2ccc(C)c(C(=O)N3CCN(c4ccccc4C(F)(F)F)CC3)c2)cc1 | 1 to 50 | –
COCOc1ccc(NS(=O)(=O)c2ccc(C)c(C(=O)N3CCN(c4ccccc4OC)CC3)c2)cc1 | 1 to 50 | –
COCCOCOc1ccc(NS(=O)(=O)c2ccc(C)c(C(=O)N3CCN(c4ccccc4OC)CC3)c2)cc1 | 1 to 50 | –
CCCCOc1ccc(NS(=O)(=O)c2ccc(C)c(C(=O)N3CCN(c4ccccc4OC)CC3)c2)c(C)c1C | 1 to 50 | –
CCCCc1ccc(NS(=O)(=O)c2cc3c(c(C(=O)N4CCN(c5ccccc5OC)CC4)c2)OCCO3)cc1 | 1 to 50 | –
COc1ccc(NS(=O)(=O)c2ccc(C)c(C(=O)N3CCN(c4ccccc4)CC3)c2)cc1 | – | IC50 (IDH1 R132H; number printed in Table 1 instead of a class symbol): 51 µM
CCCCc1ccc(OC(=O)Nc2cccc(C(=O)N3CCN(c4ccccc4OC)CC3)c2)cc1 | > 50 | –
bevacizumab: "The anti-angiogenic agent bevacizumab"; listed among "exemplary antibodies" | – | 6-month survival (recurrent glioma): 46%
